PubChem BioAssay AID651875 (NMMLSC, 2012)

Test system: AM2.2 cells FAP-GPR32, fluorogen binding, flow cytometry MCF
Experiment: fluorogen binding to FAP-tagged GPR32, dose response, counter-screen for beta2AR agonist internalization project, AM2.2 cells, flow cytometry, powder set 4 (AID 651875)

Cc1ccc(S(=O)(=O)N(C)CC(=O)N2CCN(c3ccccn3)CC2)cc1
EC50: 3.7 nM

O=C(C1CCC(=O)N1S(=O)(=O)c1ccccc1)N1CCN(c2ccccn2)CC1 (stereo not given)
EC50: 49.6 nM

O=C(CN(Cc1ccccc1)S(=O)(=O)c1ccc(Cl)cc1)N1CCN(c2ccccn2)CC1
EC50: 316 nM

CC(=O)Nc1ccc(S(=O)(=O)N2CCCCC2c2cccnc2)cc1 (stereo not given)
EC50: 15.6 nM

COc1ccccc1N1CCN(C(=O)CN(C)S(=O)(=O)c2ccc(C)cc2)CC1
EC50: 974 nM
